Laboratory results as given in PubChem BioAssay (NCI).
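Grown in 96-well plates, cells were treated for 48 hours with each compound at five concentrations. Insufficient inhibition: endpoint recorded as highest concentration tested. TGI marks complete inhibition of growth.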

Columns and labels:
Assay in all cases: growth of human tumour cells (NCI), 48 h
[1] = tested on: LOX IMVI melanoma
[2] = tested on: RPMI-8226 leukemia
[3] = tested on: SNB-19 CNS
[4] = tested on: BT-549 breast
[5] = tested on: U251 CNS
[6] = tested on: MCF7 breast
[7] = tested on: OVCAR-8 ovarian
[8] = tested on: NCI-H460 lung
[9] = tested on: SK-OV-3 ovarian
[10] = tested on: A549 NSCLC

SMILES | TGI [1] [µM] | TGI [2] [µM] | TGI [3] [µM] | TGI [4] [µM] | TGI [5] [µM] | TGI [6] [µM] | TGI [7] [µM] | TGI [8] [µM] | TGI [9] [µM] | TGI [10] [µM]
CCN(CC)CCO/N=C1\CC[C@H]2[C@@H]3CC=C4C[C@@H](O)CC[C@]4(C)[C@H]3CC[C@]12C | 31.1 | 47.6 | 98.5 | 44.4 | 35.9 | 31.6 | 64.6 | 29.8 | – | –
O=C(CC(O)(C(F)(F)F)C(F)(F)F)C(CCCl)C(O)(C(F)(F)F)C(F)(F)F (stereo unspecified) | > 100 | 61.1 | > 100 | – | > 100 | > 100 | 83.9 | 88.6 | > 100 | > 100
Cc1cc2ccccc2c[n+]1CC(O)C[n+]1cc2ccccc2cc1C | > 100 | > 100 | > 100 | > 100 | > 100 | > 100 | > 100 | > 100 | – | > 100
CCc1nnc(-n2c(C)nc3cc(Cl)ccc3c2=O)s1 | > 100 | – | > 100 | > 100 | > 100 | > 100 | > 100 | > 100 | > 100 | > 100
CN(CCc1ccc(Cl)c(Cl)c1)[C@H]1CCCC[C@H]1N1CCCC1 | > 100 | > 100 | > 100 | > 100 | > 100 | > 100 | > 100 | – | > 100 | > 100
COc1ccc(C2OC(=O)c3c2ccc2ccccc32)c(C)c1 (stereo unspecified) | – | 60.9 | > 100 | 69.4 | 20.2 | 10.1 | > 100 | > 100 | – | 73.4
CN(C)CCOC(=O)COc1ccc(Cl)cc1 | > 100 | – | > 100 | – | > 100 | > 100 | > 100 | > 100 | > 100 | > 100
O=C1NC(=S)N/C1=C/c1ccccc1O | > 100 | > 100 | > 100 | > 100 | > 100 | > 100 | > 100 | – | > 100 | > 100
CN1CCn2c(Br)ccc2C1=O | > 100 | > 100 | > 100 | – | > 100 | – | > 100 | > 100 | – | > 100
Nc1nc(Cl)cc(N=Nc2ccccc2)n1 | 67 | > 100 | > 100 | > 100 | – | > 100 | 97.6 | – | > 100 | > 100
COC(=O)C(/C(=N/NC(=O)c1ccncc1)C(=O)Nc1ccccc1OC)c1nc2ccc(Cl)cc2[nH]c1=O (stereo unspecified) | > 100 | > 100 | – | > 100 | > 100 | > 100 | > 100 | > 100 | > 100 | > 100
CN=C(Nn1cnnc1)OC | – | > 100 | > 100 | – | > 100 | > 100 | > 100 | > 100 | > 100 | > 100
O=c1[nH]c(=O)n(C2OC(COP(=O)(O)OP(=O)(O)O)C(O)C2O)cc1F (stereo unspecified) | 23 | > 50 | > 50 | – | > 25.2 | – | > 50 | 12.7 | 47.8 | > 41.4
Clc1nc(-[n+]2ccc(-c3ccncc3)cc2)nc(Nc2ccccc2)c1Cl | > 100 | > 100 | > 100 | > 100 | > 100 | > 100 | – | > 100 | > 100 | > 100
CCC1(CC)C(=O)CC[C@@]2(C)C1=CC[C@H]1[C@@H]3CC[C@H](O)[C@@]3(C)CC[C@@H]12 | 37.8 | 32.4 | > 100 | > 100 | 33.9 | – | 56.5 | 32.2 | > 100 | 28.9
CC(CCC(=O)O)[C@H]1CCC2[C@H]3C(CC[C@@]21C)[C@@]1(C)CCC(O)C[C@H]1C[C@@H]3O (stereo partly specified) | > 100 | > 100 | > 100 | > 100 | > 100 | > 100 | > 100 | > 100 | – | > 100
CCOC(=O)c1cc2c(OC(C)=O)ccc(OC(C)=O)c2s1 | 3.09 | – | 19.9 | 4.97 | 10.4 | 11.8 | 3.51 | 22.2 | 22.7 | 28.6
COC(=O)c1sc(=S)sc1SCc1ccccc1CSc1sc(=S)sc1C(=O)OC | > 100 | – | > 100 | > 100 | > 100 | > 100 | > 100 | > 100 | > 100 | > 100
CCOC(=O)C(C)(C)Oc1ccc2c(=O)cc(-c3ccccc3)oc2c1 | 37.1 | 37.8 | 42.8 | – | 44.9 | – | 51.4 | > 100 | > 100 | 59
COC(=O)C1=C(O)C(C(=O)OC)[C@@]2(O)[C@@H](C(=O)OC)C(c3ccc(OC(=O)/C(=C/c4ccc(Cl)cc4)c4ccc(Cl)cc4)cc3)C[C@@H]1[C@@H]2C(=O)OC (stereo partly specified) | 38.1 | – | > 100 | > 100 | > 100 | > 100 | > 100 | > 100 | > 100 | > 100
COc1cccc(NC(=O)CSc2nnc(-c3ccc(N=Cc4ccc(Cl)cc4)cc3)o2)c1 | 37.7 | 65.1 | 53.2 | – | 30.8 | – | 58.4 | 60.6 | > 100 | 69.6
CC[C@]12C=CCN3CCC4(c5cc(N=Nc6ccccc6)c(OC)cc5N(C)[C@H]4[C@@](O)(C(=O)OC)[C@@H]1OC(C)=O)[C@@H]32 (stereo partly specified) | 33 | 59.3 | 47.2 | 35.6 | 29.4 | 34.4 | 42.2 | 33.5 | – | 40.9
COc1cc([C@@H]2c3cc4c(cc3[C@@H](NC(=O)c3ccc(N)cc3)C3COC(=O)[C@@H]32)OCO4)cc(OC)c1O (stereo partly specified) | 18.7 | 20.2 | 17.4 | – | 3.5 | – | 16.3 | 10.9 | 8.06 | 12.8
